Assays:
CYP2B6 = target: T1, CYP2B6 (Homo sapiens, UniProt P20813); test: CYP450 isoform enzymatic inhibition, 2B6; assay type: in vitro ADME; conditions: CYP2B6 enzyme, pH 7.4, read-out: CYP inhibiton/% 2B6
T1 sequence (P20813 1-491): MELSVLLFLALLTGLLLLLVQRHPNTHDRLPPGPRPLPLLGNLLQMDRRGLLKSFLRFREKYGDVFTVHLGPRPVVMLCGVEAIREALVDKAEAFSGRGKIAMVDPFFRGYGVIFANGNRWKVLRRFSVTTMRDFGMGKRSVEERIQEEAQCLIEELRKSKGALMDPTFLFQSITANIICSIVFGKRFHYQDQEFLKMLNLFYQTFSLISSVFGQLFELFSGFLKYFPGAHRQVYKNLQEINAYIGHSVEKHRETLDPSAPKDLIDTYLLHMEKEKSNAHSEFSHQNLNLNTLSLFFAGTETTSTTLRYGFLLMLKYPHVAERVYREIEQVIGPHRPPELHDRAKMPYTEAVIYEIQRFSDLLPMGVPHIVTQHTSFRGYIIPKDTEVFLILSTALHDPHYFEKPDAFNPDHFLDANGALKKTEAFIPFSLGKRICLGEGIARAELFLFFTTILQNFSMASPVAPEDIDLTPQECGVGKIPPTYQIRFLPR

CYP2C8 = target: T2, CYP2C8 (Homo sapiens, UniProt P10632); test: in vitro; conditions: CYP2C8 enzyme, pH 7.4, probe DBOMF (0.001 mM)
T2 sequence (P10632 1-490): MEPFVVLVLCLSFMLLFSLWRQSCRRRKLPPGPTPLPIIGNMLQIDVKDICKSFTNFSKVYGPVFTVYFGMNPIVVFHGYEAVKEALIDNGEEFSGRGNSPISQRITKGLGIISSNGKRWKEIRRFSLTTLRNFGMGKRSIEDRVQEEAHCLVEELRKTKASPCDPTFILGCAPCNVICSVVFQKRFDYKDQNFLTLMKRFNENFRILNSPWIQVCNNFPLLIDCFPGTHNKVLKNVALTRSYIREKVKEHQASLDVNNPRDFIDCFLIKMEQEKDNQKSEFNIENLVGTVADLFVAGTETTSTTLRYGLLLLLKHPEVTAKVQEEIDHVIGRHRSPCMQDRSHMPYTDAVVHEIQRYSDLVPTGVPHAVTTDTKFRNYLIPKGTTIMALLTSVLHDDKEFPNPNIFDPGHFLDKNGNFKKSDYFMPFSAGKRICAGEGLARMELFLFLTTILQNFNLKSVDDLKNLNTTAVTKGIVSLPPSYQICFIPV

CYP2C9 = CYP2C9 (Homo sapiens, UniProt P11712); test: in vitro; conditions: CYP2C9 enzyme, pH 7.4, probe BOMCC (0.01 mM)
Chain of CYP2C9 (P11712 whole entry, species assumed): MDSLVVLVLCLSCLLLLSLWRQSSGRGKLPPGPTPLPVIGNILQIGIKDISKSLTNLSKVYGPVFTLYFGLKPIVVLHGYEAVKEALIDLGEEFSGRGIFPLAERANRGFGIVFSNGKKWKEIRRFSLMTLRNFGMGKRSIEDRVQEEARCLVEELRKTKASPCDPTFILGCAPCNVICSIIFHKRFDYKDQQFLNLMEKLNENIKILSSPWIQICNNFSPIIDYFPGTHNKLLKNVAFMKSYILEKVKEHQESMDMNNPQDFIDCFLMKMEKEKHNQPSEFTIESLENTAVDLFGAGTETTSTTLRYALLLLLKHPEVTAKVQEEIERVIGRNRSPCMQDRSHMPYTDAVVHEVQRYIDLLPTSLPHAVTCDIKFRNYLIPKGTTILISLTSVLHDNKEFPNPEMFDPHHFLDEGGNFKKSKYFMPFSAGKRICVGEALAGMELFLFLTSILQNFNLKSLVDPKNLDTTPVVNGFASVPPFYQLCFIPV

CYP3A4 = CYP3A4 (Homo sapiens, UniProt P08684); test: in vitro; conditions: CYP3A4 enzyme, pH 7.4, probe BOMCC (0.01 mM)
Chain of CYP3A4 (P08684 whole entry, species assumed): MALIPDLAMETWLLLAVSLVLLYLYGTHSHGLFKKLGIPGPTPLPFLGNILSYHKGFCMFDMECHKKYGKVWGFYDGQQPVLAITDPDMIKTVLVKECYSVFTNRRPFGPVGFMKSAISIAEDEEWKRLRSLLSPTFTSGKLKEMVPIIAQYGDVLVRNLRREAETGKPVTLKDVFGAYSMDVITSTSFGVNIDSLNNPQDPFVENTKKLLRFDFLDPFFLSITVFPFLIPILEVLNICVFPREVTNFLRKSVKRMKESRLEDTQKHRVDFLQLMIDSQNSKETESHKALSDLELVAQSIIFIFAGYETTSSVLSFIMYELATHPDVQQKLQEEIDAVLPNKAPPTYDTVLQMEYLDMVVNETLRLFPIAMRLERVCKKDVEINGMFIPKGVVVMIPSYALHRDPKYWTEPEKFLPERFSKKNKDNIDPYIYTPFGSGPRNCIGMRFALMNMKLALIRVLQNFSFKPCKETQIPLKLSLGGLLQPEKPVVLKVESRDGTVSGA

Wee1 protein = target: T3, Wee1 protein (Homo sapiens, UniProt P30291); test: Binding of compound to Wee1 protein and Tracer 178 by TR-FRET (Wee1 kinase inhibitory activity); conditions: 15 nM WEE1, 50 nM Tracer 178, read-out: IC50 (inhibitory activity against Wee1 kinase)
T3 construct: purchased Thermo Fisher PR7373A
T3 sequence (P30291 whole entry): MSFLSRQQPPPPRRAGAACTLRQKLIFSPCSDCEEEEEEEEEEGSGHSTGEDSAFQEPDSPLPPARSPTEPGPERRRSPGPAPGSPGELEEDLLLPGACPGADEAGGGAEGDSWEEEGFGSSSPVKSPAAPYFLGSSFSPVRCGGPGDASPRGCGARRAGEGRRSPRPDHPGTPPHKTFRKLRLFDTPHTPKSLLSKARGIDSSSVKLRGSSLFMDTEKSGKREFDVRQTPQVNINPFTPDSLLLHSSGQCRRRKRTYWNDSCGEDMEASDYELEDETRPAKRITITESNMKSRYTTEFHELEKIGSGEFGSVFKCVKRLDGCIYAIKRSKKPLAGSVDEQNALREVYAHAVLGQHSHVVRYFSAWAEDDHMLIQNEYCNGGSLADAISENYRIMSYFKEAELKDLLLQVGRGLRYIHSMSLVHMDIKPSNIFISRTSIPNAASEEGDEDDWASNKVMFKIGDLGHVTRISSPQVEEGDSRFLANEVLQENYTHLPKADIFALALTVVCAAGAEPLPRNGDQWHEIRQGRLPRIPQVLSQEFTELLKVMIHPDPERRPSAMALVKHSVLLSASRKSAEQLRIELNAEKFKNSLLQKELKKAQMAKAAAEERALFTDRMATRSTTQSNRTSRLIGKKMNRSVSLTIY

[1] = Liver microsomes in vitro stability (human); assay type: in vitro ADME; conditions: read-out: T1/2/min (H)
Method: 1. Preparation of Working Solution:
Microsomes were taken out from the −80° C. refrigerator, rapidly melted in a 37° C. water bath and placed on ice until ready to use. The test article was diluted with DMSO to prepare a 10 mM stock solution, and then diluted with acetonitrile to a 0.5 mM secondary stock solution. […] NADPH was diluted with Buffer C to a working solution of 6 mM for the starter solution. An acetonitrile solution containing an internal standard was prepared as the precipitant, and Verapamil-HCl was chosen as the internal standard at a concentration of 4 ng/ml.
2. Experimental Procedure:
A round-bottom well plate was taken, noted as the reaction plate, and the prepared working solution for each compound was dispensed into the well plate according to the number of replicates and time points (0 h samples were also added to the reaction plate), 30 μL/well; the plate was incubated at 37° C. for 10 min. A separate plate with pointed bottom wells, noted as a precipitation plate, was added with 135 μL precipitant per well; 0 h samples were transferred to the plate after 10 min incubation and 15 μL of starter solution was added; the plate was placed on ice before centrifugation.
The diluted starter solution was added in sufficient quantity to the dispensing plate to facilitate the multichannel pipette aspiration operation.
The reaction was carried out on a warm incubation shaker and 15 μL of starter solution/sample is added to the plate using a multichannel pipette. The reaction was mixed with a slight shake to initiate the reaction, which was accurately timed and recorded using a timer. In general, samples with shorter reaction times are initiated late and vice versa early, allowing sufficient time for multiple plate manipulation to terminate the reaction. For example, as for the four experiments of 5, 15, 30, and 60 min, the 60 min experiment was started first, and the 5 min experiment was started later, so as to leave sufficient time for the 5 min group.
After the reaction time had elapsed, all the solution in the plate was aspirated using the multichannel pipette and added to the precipitation plate to terminate the reaction at that point in time. After all reactions had been terminated, the plates were shaken for ten minutes on a plate shaker at 600 rpm to precipitate the protein. The plate was centrifuged at 4° C. for 15 minutes at maximum rpm. 80 μL of supernatant was taken, 320 μL of pure water was added and mixed for LC-MS analysis.

| Compound | inhibition at 30 min, 10 µM (CYP2B6) | inhibition at 30 min, 1 µM (CYP2C8) | inhibition at 30 min, 10 µM (CYP2C8) | inhibition at 30 min, 1 µM (CYP2C9) | inhibition at 30 min, 10 µM (CYP2C9) | inhibition at 30 min, 1 µM (CYP3A4) | inhibition at 30 min, 10 µM (CYP3A4) | IC50 (Wee1 protein) | half-life at 1 µM [1] |
| --- | --- | --- | --- | --- | --- | --- | --- | --- | --- |
| C=CCn1c(=O)c2cnc(Nc3ccc(N4CCN(C)CC4)cc3)nc2n1-c1cccc(C(C)(C)O)n1 [AZD1775] | 17.4% | 7.1% | 17.3% | 15.4% | 6.4% | -14% | -32.9% |  |  |
| C=CCn1c(=O)c2cnc(Nc3ccc(N4CC5CC(C4)N5C)cc3)nc2n1-c1cccc(C(C)(C)O)n1 [Compound 27] |  |  |  |  |  |  |  | 5 to 10 nM | 1.75 h |

Source: patent US20250034151A1, “WEE1 INHIBITOR, PREPARATION THEREFOR, AND USE THEREOF” (JIANGSU TASLY DIYI PHARMACEUTICAL CO., LTD., priority 2022, published 2025)
